We go through 3 molecules from article PMC4045324 (Biochemistry, 2014).

Marks after values point to notes of the source that are not given here.

In data set [1] the test system is wild-type MtDXR. The settings on record: ref Liu and Murkin 17; cited from earlier work.
The test system of data set [2] is CC(=O)[C@@H](O)[C@H](O)COP(=O)(O)O. The experiment in a line: purified protein, by the assay type. The settings on record: pH 7.5; 25.0 °C.
Data set [3] concerns the target wild-type MtDXR (Mycobacterium tuberculosis, UniProt P9WNS1). It is filed as binding.
Data set [4] deals with wild-type MtDXR. The settings on record: pH 7.6; cited from earlier work.
Another data set concerns the target DXR. The settings on record: read-out: Ki values; cited from earlier work.
The subject of another data set is P. falciparum. The settings on record: cited from earlier work.
A further data set relates to M. tuberculosis. The settings on record: cited from earlier work.

As usually defined, the Km is the substrate concentration at which the rate is half of its maximum. One may read the kcat as the number of substrate molecules converted per active site and unit of time at saturation. In general, kcat/Km refers to the second-order rate constant that governs catalysis at low substrate concentration. As usually defined, the Kd is the free concentration of one partner at which half of the binding sites on the other are occupied at equilibrium, for simple one-to-one binding. For orientation: Ki means the equilibrium dissociation constant of an inhibitor or competing ligand from its target.

Sequence of wild-type MtDXR (Mycobacterium tuberculosis, UniProt P9WNS1) (P9WNS1 1-389): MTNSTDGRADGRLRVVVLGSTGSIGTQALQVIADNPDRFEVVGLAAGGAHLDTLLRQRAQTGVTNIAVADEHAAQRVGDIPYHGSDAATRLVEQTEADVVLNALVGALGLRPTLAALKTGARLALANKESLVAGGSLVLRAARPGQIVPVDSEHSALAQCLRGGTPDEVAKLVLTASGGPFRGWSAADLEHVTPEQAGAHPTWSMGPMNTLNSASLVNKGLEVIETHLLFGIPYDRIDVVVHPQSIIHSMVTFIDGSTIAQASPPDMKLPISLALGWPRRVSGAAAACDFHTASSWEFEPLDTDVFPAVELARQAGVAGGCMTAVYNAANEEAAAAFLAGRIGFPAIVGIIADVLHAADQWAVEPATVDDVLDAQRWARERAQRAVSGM

With `CC(=O)[C@@H](O)[C@H](O)COP(=O)(O)O` [DXP, 1-deoxy-D-xylulose 5-phosphate], in the data set with wild-type MtDXR [1], the Km is 115 ± 7 µM.

For the molecule (Mycobacterium tuberculosis H37Rv), in data set [2], the Km came to 137 ± 12 µM, the catalytic constant (kcat) worked out at 4.2 ± 0.2 s⁻¹ and the kcat/Km was found to be 31000 ± 2000 M⁻¹ s⁻¹.

For `O=CN(O)CCCP(=O)(O)O` [fosmidomycin], the “enthalpy share of total binding energy” value on wild-type MtDXR [3] is 50%. On wild-type MtDXR [3] (pH 7.5), the “ΔG°” value is “–9.82 ± 0.08 kcal/mol”, the “ΔH°” value is given as “–4.8 ± 0.7 kcal/mol” and the “–TΔS°” value is recorded as “–5.0 ± 0.7 kcal/mol”. Further, on wild-type MtDXR [4], the Kd is 290 nM, the “ΔG°” value is on record as “–8.34 ^e kcal/mol”, the “ΔH°” value was “–6.0 ^e kcal/mol” and the “–TΔS°” value was “–2.3 ^e kcal/mol”. In addition, at DXR, the Ki was 10 to 100 nM. Moreover, the “treatment of malaria caused by P. falciparum” value in the data set with P. falciparum is given as “effective”. Besides, the “activity against M. tuberculosis” value with M. tuberculosis is “poorly active”.
